Data on one compound can be found in patent US20090297438A1, “Human Monoclonal Antibodies to Prostate Specific Membrane Antigen (PSMA)” (priority 2005, published 2009).

In this test the test system is LNCaP human prostate carcinoma xenografts. Kind of test: LNCaP tumor xenografts treated with Taxotere and 7F12 antibody. The test is classed as in vivo, male CB17.SCID mice. To be noted: Taxotere alone, 2 and 4 mg/kg iv. As to the method:
The anti-tumor efficacy of the anti-PSMA 7F12 antibody in combination with Taxotere® (docetaxel) was tested on LNCaP human prostate carcinoma xenografts grown in male CB17.SCID mice.
LNCaP prostate cancer cells expressing high levels of PSMA were obtained from ATCC (Cat# CRL-1740) and expanded in vitro following ATCC instruction. 8 week-old male CB17.SCID mice from Taconic were implanted subcutaneously in the right flank with 2.5×10^6 LNCaP cells in 0.2 ml of PBS/Matrigel (1:1) per mouse. Mice were weighed and measured for tumor volume using an electronic caliper twice weekly starting three weeks post implantation. Tumor volumes were calculated as height×width×length. Mice with vascularized tumors (determined by the appearance of the tumors) of 180 mm^3 were randomized into treatment group and were dosed per individual body weight on Day 0. Mice were monitored for tumor growth around 60 days post dosing and terminated at the end of the study. Mice were euthanized when the tumors reached tumor end point (1500 mm^3). Taxotere® was dosed at Q3Dx3 intravenously (iv) through the tail vein. Isotype control antibody Rituxan® and the anti-PSMA 7F12 antibody were dosed intraperitoneally (ip) Q3Dx5, followed with Q7Dx6.

In the case of `CC(=O)O[C@@]12CO[C@@H]1C[C@H](O)[C@@]1(C)C(=O)[C@H](O)C3=C(C)[C@@H](OC(=O)[C@H](O)[C@@H](NC(=O)OC(C)(C)C)c4ccccc4)C[C@@](O)([C@@H](OC(=O)c4ccccc4)[C@H]21)C3(C)C` [Taxotere®, docetaxel], the anti-tumor growth efficacy entry is listed as “dose-dependent anti-tumor growth efficacy”.
